Laboratory results from publication PMC10711279 (Frontiers in Pharmacology, 2023).

Key:
[1] = ref Vogt et al., 2023; cited from earlier work
[2] = Blood plasma levels (LC-MS/MS) after DMT/harmine administration
Method: Blood samples were collected from the left antecubital vein at −30 (baseline), −15, 0, 15, 30, 45, 60, 90, 120, 180, 240, 300 and 360 min after the first DMT administration for analysis of blood plasma levels of harmine, DMT and the two major DMT metabolites 3-indole acetic acid (3-IAA) and N-methyl-tryptamine (NMT). […] Blood samples were immediately centrifuged for 10 min at 2000 RCF. Then, plasma was transferred to Eppendorf tubes, shock-frozen in liquid nitrogen (∼-196°C), and stored at −80°C until assayed.
For the sample preparation 200 µL of plasma were spiked with 50 µL internal standard (IS) mixture (40 ng/mL DMT-d6 and harmine-d3) and 50 µL methanol (MeOH). Proteins were precipitated by adding 400 µL of acetonitrile (ACN). The samples were shaken for 10 min and centrifuged for 5 min at 10,000 rpm. 350 μL of the supernatant was transferred into an auto-sampler vial, evaporated to dryness under a gentle stream of nitrogen at room temperature and reconstituted in 100 µL eluent-mixture (98:2, v/v). External calibrator and quality control (QC) samples were prepared accordingly, replacing the MeOH with a calibrator or QC solution mixtures. Calibrator and QC samples containing 3-IAA were prepared separately, replacing plasma with water. The calibration ranges were 0.5–500 ng/mL for DMT and DMT-N-oxide, 2.5–120 ng/mL for harmine, 1–80 ng/mL for harmol, 0.015–10 ng/mL for NMT and 35–3,000 ng/mL for 3-IAA.
Samples were analyzed on an ultra-high performance liquid chromatography (UHPLC) system (Thermo Fisher, San Jose, CA) coupled to a linear ion trap quadrupole mass spectrometer 5,500 (Sciex, Darmstadt, Germany). The mobile phases consisted of a mixture of water (eluent A) and ACN (eluent B), both containing 0.1% formic acid (v/v). Using a Kinetex C18 column 50 × 2.1 mm, 2.6 µm (Phenomenex, Aschaffenburg, Germany), the flow rate was set to 0.5 mL/min with the following gradient: starting conditions 98% eluent A, decreasing to 70% within 4 min, followed by a quick decrease to 5% within 1 min, holding for 0.5 min and returning to starting conditions for 1.5 min, resulting in a total runtime of 7 min. The mass spectrometer was operated in positive electrospray ionization mode with scheduled multiple reaction monitoring. The following transitions of precursor ions to product ions were selected as quantifier ions: DMT m/z 189→115, DMT-N-oxide m/z 205→117, harmine m/z 213→169, harmol m/z 199→131, NMT m/z 175→144 and 3-IAA m/z 176→103.

[3] = design: method as in Turner and Merlis, 1959; settings: dose range 5–20 mg; ref Turner and Merlis, 1959; cited from earlier work
[4] = in vivo; cited from earlier work
[5] = day 1, 250 mg oral harmine + 30 mg oral DMT
[6] = day 2, 250 mg oral harmine + 50 mg oral DMT
[7] = day 3, 150 mg buccal harmine + max 50 mg intranasal DMT
[8] = day 4, 200 mg buccal harmine + max 90 mg intranasal DMT

SMILES	Peak of the mean plasma concentrations [2, 5] [ng/mL]	Peak of the mean plasma concentrations [2, 6] [ng/mL]	Peak of the mean plasma concentrations [2, 7] [ng/mL]	Peak of the mean plasma concentrations [2, 8] [ng/mL]	Duration of action [4] [h]	other results
CN(C)CCc1c[nH]c2ccccc12 [DMT, N,N-dimethyltryptamine]	27.9 ± 15.5	23.6 ± 11.9	23.9 ± 5.0	33.1 ± 9.3	–	Plasma elimination half-life [1]: 5 to 10 min
CN(C)CCc1c[nH]c2ccccc12 [DMT freebase, N,N-dimethyltryptamine]	–	–	–	–	–	Effect of intranasal administration [3]: ineffective
COc1ccc2c(c1)[nH]c1c(C)nccc12 [harmine]	125.5 ± 111.2	104.8 ± 100.5	93.9 ± 33.5	132.4 ± 111.6	–	Tmax ([2]; human, plasma, po): 1 to 4.5 h
CCN(CC)C(=O)[C@@H]1C=C2c3cccc4[nH]cc(c34)C[C@H]2N(C)C1 [LSD]	–	–	–	–	10 to 12	–
CN(C)CCc1c[nH]c2cccc(OP(=O)(O)O)c12 [psilocybin]	–	–	–	–	4 to 6	–
